Results as given in ChEMBL document CHEMBL3046274, “Toxicity of imidacloprid to developmental stages of Rhynchophorus ferrugineus (Curculionidae: Coleoptera): Laboratory and field tests” (Crop Prot, 2006).
Active and inactive are the calls of the source. The calls are words filed in the database; no cut-off is given here.

Legend:
[1] = tested on: Rhynchophorus ferrugineus; assay: Pesticidal activity against Rhynchophorus ferrugineus (red palm weevil) cocoon assessed as mortality at 1 ppm administered by dipping for 3 min measured at 24 hr post-treatment relative to control; format: functional
[2] = tested on: Rhynchophorus ferrugineus; assay: Pesticidal activity against adult Rhynchophorus ferrugineus (red palm weevil) assessed as mortality at 1.5 ppm, po at 114 hr post-treatment relative to control; format: functional
[3] = tested on: Rhynchophorus ferrugineus; assay: Contact toxicity against Rhynchophorus ferrugineus (red palm weevil) adults assessed as time required for 100% mortality at 2.5 ml/l for 2 min; format: functional
[4] = tested on: Rhynchophorus ferrugineus; assay: Pesticidal activity Rhynchophorus ferrugineus (red palm weevil) larvae assessed as time required after hatching for 100% mortality at 1.5 ml/l administered topically measured up to 14 days relative to control; format: functional
[5] = tested on: Rhynchophorus ferrugineus; assay: Pesticidal activity against Rhynchophorus ferrugineus (red palm weevil) larvae assessed as mortality at 100 ppm administered topically at 72 hr post-treatment; format: functional
[6] = tested on: Rhynchophorus ferrugineus; assay: Pesticidal activity against Rhynchophorus ferrugineus (red palm weevil) larvae assessed as mortality at 1.5 ppm, po at 24 hr post-treatment relative to control; format: functional
[7] = tested on: Rhynchophorus ferrugineus; assay: Pesticidal activity against adult Rhynchophorus ferrugineus (red palm weevil) assessed as mortality at 1.5 ppm, po at 18 hr post-treatment relative to control; format: functional
[8] = tested on: Rhynchophorus ferrugineus; assay: Pesticidal activity against adult Rhynchophorus ferrugineus (red palm weevil) assessed as mortality at 100 ppm administered topically at 36 hr post-treatment; format: functional
[9] = tested on: Rhynchophorus ferrugineus; assay: Pesticidal activity against Rhynchophorus ferrugineus (red palm weevil) cocoon assessed as mortality at 4 ppm administered by dipping for 3 min measured at 72 hr post-treatment relative to control; format: functional
[10] = tested on: Rhynchophorus ferrugineus; assay: Pesticidal activity against adult Rhynchophorus ferrugineus (red palm weevil) assessed as mortality at 1.5 ppm, po at 90 hr post-treatment relative to control; format: functional
[11] = tested on: Rhynchophorus ferrugineus; assay: Pesticidal activity against Rhynchophorus ferrugineus (red palm weevil) cocoon assessed as mortality at 1 ppm administered by dipping for 3 min measured at 18 hr post-treatment relative to control; format: functional
[12] = tested on: Rhynchophorus ferrugineus; assay: Pesticidal activity against adult Rhynchophorus ferrugineus (red palm weevil) assessed as mortality at 300 ppm administered topically at 48 hr post-treatment; format: functional
[13] = tested on: Rhynchophorus ferrugineus; assay: Pesticidal activity against Rhynchophorus ferrugineus (red palm weevil) cocoon assessed as mortality at 2 ppm administered by dipping for 3 min measured at 24 hr post-treatment relative to control; format: functional
[14] = tested on: Rhynchophorus ferrugineus; assay: Pesticidal activity against Rhynchophorus ferrugineus (red palm weevil) cocoon assessed as mortality at 1.5 ppm administered by dipping for 3 min measured at 48 hr post-treatment relative to control; format: functional
[15] = tested on: Rhynchophorus ferrugineus; assay: Pesticidal activity against adult Rhynchophorus ferrugineus (red palm weevil) assessed as mortality at 500 ppm administered topically at 36 hr post-treatment; format: functional
[16] = tested on: Rhynchophorus ferrugineus; assay: Pesticidal activity against Rhynchophorus ferrugineus (red palm weevil) cocoon assessed as mortality at 20 ppm administered by dipping for 3 min measured at 114 hr post-treatment relative to control; format: functional
[17] = tested on: Rhynchophorus ferrugineus; assay: Pesticidal activity against adult Rhynchophorus ferrugineus (red palm weevil) assessed as mortality at 1 ppm, po at 48 hr post-treatment relative to control; format: functional
[18] = tested on: Rhynchophorus ferrugineus; assay: Pesticidal activity against Rhynchophorus ferrugineus (red palm weevil) cocoon assessed as mortality at 0.5 ppm administered by dipping for 3 min measured at 24 hr post-treatment relative to control; format: functional
[19] = tested on: Rhynchophorus ferrugineus; assay: Pesticidal activity against Rhynchophorus ferrugineus (red palm weevil) cocoon assessed as mortality at 1 ppm administered by dipping for 3 min measured at 72 hr post-treatment relative to control; format: functional
[20] = tested on: Rhynchophorus ferrugineus; assay: Pesticidal activity against Rhynchophorus ferrugineus (red palm weevil) larvae infested date palm trees assessed as mortality at 2.5 ml/l applied through soil-drench irrigation 1 week after infestation measured on day 20 post-treatment relative to control; format: functional
[21] = tested on: Rhynchophorus ferrugineus; assay: Pesticidal activity against adult Rhynchophorus ferrugineus (red palm weevil) assessed as mortality at 2 ppm, po at 48 hr post-treatment relative to control; format: functional
[22] = tested on: Rhynchophorus ferrugineus; assay: Pesticidal activity against adult Rhynchophorus ferrugineus (red palm weevil) assessed as mortality at 0.5 ppm, po at 48 hr post-treatment relative to control; format: functional
[23] = tested on: Rhynchophorus ferrugineus; assay: Pesticidal activity against Rhynchophorus ferrugineus (red palm weevil) larvae assessed as mortality at 1 ppm, po at 48 hr post-treatment relative to control; format: functional
[24] = tested on: Rhynchophorus ferrugineus; assay: Pesticidal activity against Rhynchophorus ferrugineus (red palm weevil) cocoon assessed as mortality at 1.5 ppm administered by dipping for 3 min measured at 72 hr post-treatment relative to control; format: functional
[25] = tested on: Rhynchophorus ferrugineus; assay: Pesticidal activity against Rhynchophorus ferrugineus (red palm weevil) larvae infested date palm tree assessed as reduction in mandibles movement of collected live stage larvae at 20 ml/4l of water applied through soil-drench irrigation measured after 3 weeks relative to control; format: functional, organism-based
[26] = tested on: Rhynchophorus ferrugineus; assay: Contact toxicity against Rhynchophorus ferrugineus (red palm weevil) adults assessed as time required for 50% mortality at 2.5 ml/l for 5 min; format: functional
[27] = tested on: Rhynchophorus ferrugineus; assay: Contact toxicity against Rhynchophorus ferrugineus (red palm weevil) adults assessed as time required for 100% mortality at 1.5 ml/l for 2 min; format: functional
[28] = tested on: Rhynchophorus ferrugineus; assay: Contact toxicity against Rhynchophorus ferrugineus (red palm weevil) adults assessed as time required for 50% reversible knockdown at 1.5 ml/l for 2 min; format: functional
[29] = tested on: Rhynchophorus ferrugineus; assay: Pesticidal activity against Rhynchophorus ferrugineus (red palm weevil) larvae assessed as mortality at 2 ppm, po at 90 hr post-treatment relative to control; format: functional
[30] = tested on: Rhynchophorus ferrugineus; assay: Pesticidal activity against Rhynchophorus ferrugineus (red palm weevil) cocoon assessed as mortality at 2 ppm administered by dipping for 3 min measured at 114 hr post-treatment relative to control; format: functional
[31] = tested on: Rhynchophorus ferrugineus; assay: Pesticidal activity against adult Rhynchophorus ferrugineus (red palm weevil) assessed as mortality at 0.5 ppm, po at 24 hr post-treatment relative to control; format: functional
[32] = tested on: Rhynchophorus ferrugineus; assay: Contact toxicity against Rhynchophorus ferrugineus (red palm weevil) adults assessed as time required for 100% reversible knockdown at 2.5 ml/l for 2 min; format: functional
[33] = tested on: Rhynchophorus ferrugineus; assay: Contact toxicity against Rhynchophorus ferrugineus (red palm weevil) adults assessed as time required for 50% mortality at 2.5 ml/l for 2 min; format: functional
[34] = tested on: Rhynchophorus ferrugineus; assay: Contact toxicity against Rhynchophorus ferrugineus (red palm weevil) adults assessed as time required for 50% mortality at 1.5 ml/l for 5 min; format: functional
[35] = tested on: Rhynchophorus ferrugineus; assay: Pesticidal activity against Rhynchophorus ferrugineus (red palm weevil) larvae assessed as mortality at 1 ppm, po at 18 hr post-treatment relative to control; format: functional
[36] = tested on: Rhynchophorus ferrugineus; assay: Pesticidal activity against Rhynchophorus ferrugineus (red palm weevil) larvae assessed as mortality at 1000 ppm administered topically at 48 hr post-treatment; format: functional
[37] = tested on: Rhynchophorus ferrugineus; assay: Pesticidal activity against Rhynchophorus ferrugineus (red palm weevil) cocoons assessed as time required for total mortality at 1.5 ml/l administered by dipping for 10 secs; format: functional
[38] = tested on: Rhynchophorus ferrugineus; assay: Pesticidal activity against adult Rhynchophorus ferrugineus (red palm weevil) assessed as time required for reversible knockdown at 2.5 ml/l administered topically; format: functional
[39] = tested on: Rhynchophorus ferrugineus; assay: Contact toxicity against Rhynchophorus ferrugineus (red palm weevil) adults assessed as time required for 100% mortality at 3.5 ml/l for 2 min; format: functional
[40] = tested on: Rhynchophorus ferrugineus; assay: Pesticidal activity against Rhynchophorus ferrugineus (red palm weevil) larvae assessed as mortality at 2 ppm, po at 72 hr post-treatment relative to control; format: functional
[41] = tested on: Rhynchophorus ferrugineus; assay: Pesticidal activity against adult Rhynchophorus ferrugineus (red palm weevil) assessed as mortality at 2 ppm, po at 18 hr post-treatment relative to control; format: functional

O=[N+]([O-])/N=C1\NCCN1Cc1ccc(Cl)nc1 [IMIDACLOPRID]
Activity [1]: 0% | Activity [2]: 100% | Time [3]: 13.1 days | Time [4]: 6 days | Activity [5]: 0% | Activity [6]: 100% | Activity [7]: 72.2% | Activity [8]: 38.9% | Activity [9]: 44.4% | Activity [10]: 100% | Activity [11]: 0% | Activity [12]: 72.2% | Activity [13]: 0% | Activity [14]: 0% | Activity [15]: 72.2% | Activity [16]: 100% | Activity [17]: 38.9% | Activity [18]: 0% | Activity [19]: 0% | Activity [20]: 100% | Activity [21]: 100% | Activity [22]: 38.9% | Activity [23]: 38.9% | Activity [24]: 0% | Activity [25]: Active | Time [26]: 3.2 days | Time [27]: 18 days | Time [28]: 3.2 days | Activity [29]: 100% | Activity [30]: 72.2% | Activity [31]: 0% | Time [32]: 7.1 days | Time [33]: 10.1 days | Time [34]: 4.3 days | Activity [35]: 0% | Activity [36]: 100% | Time [37]: 10 days | Time [38]: 2 days | Time [39]: 8.1 days | Activity [40]: 100% | Activity [41]: 100%
